# Data reported in patent publication US20230146923A1, “COMPOSITIONS AND METHODS FOR INHIBITION AND TARGETING OF P97” (California Institute of Technology, priority 2021, published 2023).
# Where a SMILES comes first, the peptide text is derived from it. The star is where a group is joined. Cbz = O=C(OCc1ccccc1)*
# Key:
# HCT116 cells = assay: TMT labeling proteomics of HCT116 cells treated with MG132, CB-5083 or NMS-873; assay type: cell-based; conditions: for Log2 FC Baculoviral IAP repeat-containing protein 5 (BIRC5) / Log2 FC Cell division cycle protein 20 homolog (CDC20) / Log2 FC F-box only protein 5 (FBXO5) / Log2 FC G1/S-specific cyclin-D1 (CCND1) / Log2 FC Geminin (GMNN) / Log2 FC M-phase inducer phosphatase 2 (CDC25B) / Log2 FC Mitotic checkpoint serine/threonine-protein kinase BUB1 (BUB1) / Log2 FC Myc proto-oncogene protein (MYC) / Log2 FC Origin recognition complex subunit 6 (ORC6) / Log2 FC Ribonucleoside-diphosphate reductase subunit M2 (RRM2) / Log2 FC Securin (PTTG1): compound vs DMSO
# Method: HCT116 cells were treated with 1 μM MG132, 2 μM CB-5083 or 4 μM of NMS-874 for 6 h or 24 h, n=2. […] M, C and N represents MG132, CB-5083 and NMS-873, respectively.
# As a step toward understanding the differential effects of inhibiting p97 and the proteasome in cancer treatment, the effect of inhibiting p97 was compared to proteasome inhibition using tandem mass tag (TMT) 16-plexed labelling. This technique allowed for capture of alterations in the proteome after exposure to MG132 (proteasome inhibitor) and p97 inhibitors (CB-5083 and NMS-873). […] Samples were pooled together, fractionated into 8 fractions using high pH reverse chromatography, and analyzed using the highly accurate RTS-SPS-MS3 method.
# E2F1 = E2F1 reporter assay; assay type: cell-based; conditions: HCT116 transfected with pGL2-AN plasmid, 8 h treatment, luminescence
# Method: FIGS. 10A-10F depicts p97 inhibition impairs the transcriptional activity of E2F1 by downregulating the CCND1/CDK complex. […] Data was analyzed using the g:Profiler website. Shading indicates the gene is a potential target of transcription factor c-Myb or E2F1. Blank indicates it is not a target gene. FIG. 10B depicts known regulatory network of the CCND1/CDK/RB1/E2F1 pathway. […] HCT116 cells were treated with 1 μM MG132, 2 μM CB-5083 or 4 μM of NMS-874 for 6 h. FIGS. 10E and 10F show transcriptional activity of E2F1 measured using E2F1 reporter assay. HCT116 cells were transfected with pGL2-AN plasmid (Addgene: 20950) for 24 h. Then cells were plated in 384 well plate and incubated for 16 h. The luminescence were detected after 8 h treatment with MG132, CB-5083 or NMS-873. Data are shown as mean±SD, n=3. f, qRT-PCR analysis of ATF3, DHFR and CCND1 RNAs following treatment with MG132, CB-5083 or NMS-874. HCT116 cells were treated for 2, 6 and 24 h using the same concentration as proteomic and western blot assay (n=4).
# To determine if the decreased expression of E2F1 target genes was caused by the downregulation of E2F1 levels due to ER stress, qPCR and western blot were used to evaluate E2F1 levels. […] The transcriptional activity of E2F1 can also be repressed through the formation of a complex with the tumor suppressor protein retinoblastoma (RB1) (FIG. 10B). […]
smiles,measurement,setting,value
CC(C)C[C@@H](C=O)NC(=O)[C@H](CC(C)C)NC(=O)[C@H](CC(C)C)NC(=O)OCc1ccccc1 [MG132] (Cbz-Leu-Leu-Leu-aldehyde),TAX1BP1 and p62 protein levels,"HCT116 cells; HCT116, 6 h and 24 h",upregulated
same,Log2 FC Baculoviral IAP repeat-containing protein 5 (BIRC5),"HCT116 cells; HCT116, 6 h treatment",0.6
same,Log2 FC Cell division cycle protein 20 homolog (CDC20),"HCT116 cells; HCT116, 6 h treatment",0.8
same,Log2 FC F-box only protein 5 (FBXO5),"HCT116 cells; HCT116, 6 h treatment",0.2
same,Log2 FC G1/S-specific cyclin-D1 (CCND1),"HCT116 cells; HCT116, 6 h treatment",0.2
same,Log2 FC Geminin (GMNN),"HCT116 cells; HCT116, 6 h treatment",0.9
same,Log2 FC M-phase inducer phosphatase 2 (CDC25B),"HCT116 cells; HCT116, 6 h treatment",0.3
same,Log2 FC Mitotic checkpoint serine/threonine-protein kinase BUB1 (BUB1),"HCT116 cells; HCT116, 6 h treatment",1.2
same,Log2 FC Myc proto-oncogene protein (MYC),"HCT116 cells; HCT116, 6 h treatment",1.2
same,Log2 FC Origin recognition complex subunit 6 (ORC6),"HCT116 cells; HCT116, 6 h treatment",0.3
same,Log2 FC Ribonucleoside-diphosphate reductase subunit M2 (RRM2),"HCT116 cells; HCT116, 6 h treatment",0.6
same,Log2 FC Securin (PTTG1),"HCT116 cells; HCT116, 6 h treatment",1.4
same,"Four XBP1 activated genes/proteins (DNAJB11, SRPR, SRPRB, SYVN1), Log2FC","HCT116 cells; HCT116, 24 h of treatment, p<0.05",not
same,Log2 FC Baculoviral IAP repeat-containing protein 5 (BIRC5),"HCT116 cells; HCT116, 24 h treatment",1.0
same,Log2 FC Cell division cycle protein 20 homolog (CDC20),"HCT116 cells; HCT116, 24 h treatment",1.1
same,Log2 FC F-box only protein 5 (FBXO5),"HCT116 cells; HCT116, 24 h treatment",1.5
same,Log2 FC G1/S-specific cyclin-D1 (CCND1),"HCT116 cells; HCT116, 24 h treatment",0.4
same,Log2 FC Geminin (GMNN),"HCT116 cells; HCT116, 24 h treatment",1.4
same,Log2 FC M-phase inducer phosphatase 2 (CDC25B),"HCT116 cells; HCT116, 24 h treatment",−0.2
same,Log2 FC Mitotic checkpoint serine/threonine-protein kinase BUB1 (BUB1),"HCT116 cells; HCT116, 24 h treatment",1.4
same,Log2 FC Myc proto-oncogene protein (MYC),"HCT116 cells; HCT116, 24 h treatment",0.2
same,Log2 FC Origin recognition complex subunit 6 (ORC6),"HCT116 cells; HCT116, 24 h treatment",1.0
same,Log2 FC Ribonucleoside-diphosphate reductase subunit M2 (RRM2),"HCT116 cells; HCT116, 24 h treatment",1.2
same,Log2 FC Securin (PTTG1),"HCT116 cells; HCT116, 24 h treatment",−0.1
same,CCND1 (cyclin D1) and CDK4/6 protein levels,"HCT116 cells; HCT116, proteomic analysis (TMT)",upregulated
same,Transcriptional activity of E2F1,E2F1,reduce the transcriptional activity of E2F1
